Measurements reported in patent US10414725B2, “Pyrrolomycins and methods of using the same” (priority 2015, dated 2019).
In brackets after ≈: the same amount, converted by molar mass. Where two headings read alike, the source gives them in different places.

What was measured:
[1] = test system: Staphyloccocus aureus USA300; assay: Minimum inhibitory concentration, broth microdilution, Staphylococcus aureus; format: cell-based; details: for MIC: Staphylococcus aureus
[2] = test system: Bacillus anthracis V770-NP1-R; assay: microbe, parasite or virus in culture; format: cell-based; details: V770NP1R, read-out: MIC BA
human Hela cells = assay: Mammalian cytotoxicity assay (CellTiter 96 AQueous One); format: cell-based; details: 24 h, highest concentration tested 100 μM, read-out: IC50 human Hela cell proliferation
Bacillus anthracis = assay: microbe, parasite or virus in culture; details: 1 h, read-out: reduction of BA culture viability
S. aureus biofilms = assay: Anti-staphylococcal biofilm activity (static biofilms, cfu); format: cell-based, Staphylococcus aureus
Staphylococcus aureus = assay: Minimum bactericidal concentration / bactericidal activity against SA; format: cell-based; details: for MBC (100% killing of SA): 24 hours, n=4
[3] = Pharmacokinetics of pyrrolomycin 4 in mice (LC-MS/MS of plasma)
[4] = Staphyloccocus aureus USA300, n ≥ 3, read-out: MIC SA

Row | SMILES | MIC [1, 4] [µg/mL] | melting point [°C] | MIC [2] [µg/mL] | MIC ([1]; USA300, read-out: MIC SA) [µg/mL] | IC50 (human Hela cells) [µg/mL] | also measured
1 | O=C(c1ccc[nH]1)c1cc(F)cc(F)c1O [Compound 9] | > 4 | 161.7 to 162.5 | > 4 | – | – | –
2 | COc1c(F)cc(F)cc1C(=O)c1ccc[nH]1 [Compound 8] | > 4 | 85.7 to 87.1 | > 4 | – | – | –
3 | COc1c(F)cc(F)cc1C(=O)c1[nH]c(Br)c(Br)c1Br [Compound 10] | 3 (≈ 6.33 µM) | 178.9 to 179.7 | 1.5 (≈ 3.17 µM) | – | – | –
4 | O=C(c1cc(Br)c(Br)[nH]1)c1cc(Cl)cc(Cl)c1O [Compound 17] | – | – | 0.188 (≈ 0.454 µM) | 0.073 (≈ 0.176 µM) | > 41.4 | –
5 | O=C(c1cc(Cl)cc(Cl)c1O)c1[nH]c(F)c(Br)c1Br [Compound 18] | 0.19 (≈ 0.44 µM) | 171.9 to 172.7 | 0.125 (≈ 0.289 µM) | – | > 43.2 | inhibition at […] (Bacillus anthracis): 92%
6 | O=C(c1ccc[nH]1)c1cc(Cl)cc(Cl)c1O [Compound 15] | – | – | > 4 | > 4 | – | –
7 | CN[C@H](CC(C)C)C(=O)N[C@H]1C(=O)N[C@@H](CC(N)=O)C(=O)N[C@H]2C(=O)N[C@H]3C(=O)N[C@H](C(=O)N[C@H](C(=O)O)c4cc(O)cc(O)c4-c4cc3ccc4O)[C@H](O)c3ccc(c(Cl)c3)Oc3cc2cc(c3O[C@@H]2O[C@H](CO)[C@@H](O)[C@H](O)[C@H]2O[C@H]2C[C@](C)(N)[C@H](O)[C@H](C)O2)Oc2ccc(cc2Cl)[C@H]1O [vancomycin, reference compound] | 2 (≈ 1.38 µM) | – | – | – | – | biofilm killing (S. aureus biofilms; 24 hours, 32 μg/mL, n=4): 11%; biofilm killing (S. aureus biofilms; 120 hours, 32 μg/mL): 39%; MBC (100% killing of SA) (Staphylococcus aureus): 8 µg/mL
8 | COc1c(F)cc(F)cc1C(=O)c1c(Br)c(Br)c(Br)n1C [Compound 11] | > 4 | 107.4 to 108.1 | > 4 | – | – | –
9 | Cn1c(Br)c(Br)c(Br)c1C(=O)c1cc(F)cc(F)c1O [Compound 12] | > 4 | 156.2 to 157.2 | > 4 | – | – | –
10 | O=C(c1cc(F)cc(F)c1O)c1[nH]c(Br)c(Br)c1Br [Compound 3] | 0.17 (≈ 0.37 µM) | 151.8 to 152.7 | 0.031 (≈ 0.0674 µM) | – | > 46 | –
11 | O=C(c1cc(Br)c(F)[nH]1)c1cc(Cl)cc(Cl)c1O [Compound 4] | – | – | 0.047 (≈ 0.133 µM) | 0.073 (≈ 0.207 µM) | > 35.3 | oral bioavailability ([3]; 10 mg/kg oral vs 1.0 mg/kg IV): 35%; elimination half-life ([3]; IV): 6.04 h; time parent compound detectable in plasma ([3]; IV and oral, detection limit 0.8 ng/mL): up to 72 hours; AUC ([3]; IV dose 1 mg/kg): 3800 ng·h/mL; elimination half-life ([3]; oral): 6.75 h; AUC ([3]; oral dose 10 mg/kg): 13200 ng·h/mL; biofilm killing (S. aureus biofilms; 24 hours, 8.0 μg/mL, n=4): 84%; biofilm killing (S. aureus biofilms; 48 hours, 8.0 μg/mL): 97%; biofilm killing (S. aureus biofilms; 120 hours, 8.0 μg/mL): > 99.9%; killing of SA (Staphylococcus aureus; 4 μg/mL, no growth of colonies after incubation for 48 hours): 100%; MBC (100% killing of SA) (Staphylococcus aureus): 4 µg/mL; inhibition at […] (Bacillus anthracis): 60%
12 | O=C(c1cc(Br)c[nH]1)c1cc(Cl)cc(Cl)c1O [Compound 19] | – | – | – | > 4 | – | MIC SA ([1]; Staphyloccocus aureus USA300, n ≥ 3): >4.0 µg/mL
